# Biological target: T1, Tau-Synaptogyrin3 interaction (Homo sapiens, UniProt O43761+P10636)
# T1 construct: expressed in transfected cells
# Test: Cell-based split luciferase (NanoBit) protein complementary assay for Tau-Synaptogyrin3 interaction in stable cell line HEK293T-TK252-1E2
# Conditions: HEK293T-TK252-1E2 cells, 48 hrs compound treatment, L/F value (luciferase activity/fluorescent intensity) compared to DMSO control
# Protocol: Live cell luciferase assay: Live cell luciferase activity was measured using NanoGlo® Live Cell Assay System (Cat# N2012. Promega, WI, USA), according to manufacturer's instruction. All microplate-based measurement was performed with BioTek Synergy H1 (Agilent. CA, USA).
# For producing HEK293T-TK252 stable cell line for screening, BglII-linearized pTK252 was transfected to HEK293T cells. After 24 hrs transfection, the transfected cells were cultured in the culture media containing 1 µg/ml puromycin (10 mM in DMSO, Cat# J61278/ Alfa Aesar. ThermoFisher Korea, Seoul, Korea) for 9 days. Regular media change was performed in every 3 days with fresh puromycin of indicating concentration during the whole selection period. The selected cells were trypsinized and diluted to 5 cells/ml and seeded to 4x 96 well cell culture plates (100 µl/well), and cultured with the cell culture media containing 1 µg/ml puromycin for 11 days. 18 wells that contained only GFP-positive cells were selected for expansion, and cultured with the cell culture media containing 0.1-0.2 µg/ml puromycin for 14 days. 10 clones were discarded during the expansion due to emerging of non-GFP cells, and 8 clones were validated. The selected clone (1E2) was cultured with the cell culture media containing 0.5 µg/ml puromycin for further experiments.
# 3 µmol of 1,728 compounds were purchased from Otava Chemicals MB (Vilniaus, Lithuania), dissolved into 300 µl DMSO (10 mM) and stored at -80°C. 4x10^4 HEK293T-TK252-1E2 cells were seeded with 100 µl of the cell culture media into 96 white well cell culture plates (Cat# 30196. SPL, Seoul, Korea), 48 hrs prior to compound treatment. For 10 µM compound treatment, 10 mM compound stock was diluted to 50 µM with the cell culture media, and 25 µl of the diluted compound was added to the designated wells of the 96 well plates. For dose-response experiments, the amount of compounds for dilution was adjusted to fit the volume indicated above. After 48 hrs compound treatment, the cells were washed once with OptiMEM and live cell luciferase activity, fluorescent intensity and fluorescence area scan was measured.
# 1,728 compounds were treated at 10 µM to HEK293T-TK252-1E2 cells and incubated for 48 hrs. […] Single wash step with culture media without FBS was included before measurement to discard dead cells and to remove FBS that affects luciferase assay. […] Fluorescent intensity was taken for normalization, which is expected to be proportion to the cell number at the measuring point. L/F value which is luciferase activity normalized with fluorescent intensity (L/F = Luciferase activity/ Fluorescent intensity) was calculated for all measurements and compared to L/F value of DMSO controls to calculated the size of inhibitory effect. […] Fluorescence area scan (FA) performed right after luciferase activity and fluorescent intensity measurement, to validate total remaining fluorescent cells in a well as a proxy to the cellular toxicity. FA value was in proportion to WST assay results (data not shown), and average CV of triplicates of all measurements was 0.04.
# 61 compounds were further tested for dose-response profile, based on inhibitory effect that was measured by L/F value (<60%) and FA-based cell viability (>90%) at 10 µM compared to DMSO control. 10 compounds were considered as hit compounds through three times of reproduction.
# T1 sequence (P10636 1-441 isoform P10636-8): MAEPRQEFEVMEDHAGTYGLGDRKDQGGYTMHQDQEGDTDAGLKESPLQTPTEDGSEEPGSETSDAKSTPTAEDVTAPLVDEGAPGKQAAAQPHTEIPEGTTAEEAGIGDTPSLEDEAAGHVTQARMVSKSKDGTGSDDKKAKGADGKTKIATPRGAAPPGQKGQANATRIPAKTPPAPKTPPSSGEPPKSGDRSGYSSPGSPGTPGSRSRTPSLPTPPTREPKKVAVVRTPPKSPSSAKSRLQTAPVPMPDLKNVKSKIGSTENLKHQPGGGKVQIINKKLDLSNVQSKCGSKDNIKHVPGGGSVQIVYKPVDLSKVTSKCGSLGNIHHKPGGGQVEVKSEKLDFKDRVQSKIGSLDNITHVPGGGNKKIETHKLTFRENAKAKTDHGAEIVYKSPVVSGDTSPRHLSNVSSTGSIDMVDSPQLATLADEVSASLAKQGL
# T1 sequence (O43761 whole entry): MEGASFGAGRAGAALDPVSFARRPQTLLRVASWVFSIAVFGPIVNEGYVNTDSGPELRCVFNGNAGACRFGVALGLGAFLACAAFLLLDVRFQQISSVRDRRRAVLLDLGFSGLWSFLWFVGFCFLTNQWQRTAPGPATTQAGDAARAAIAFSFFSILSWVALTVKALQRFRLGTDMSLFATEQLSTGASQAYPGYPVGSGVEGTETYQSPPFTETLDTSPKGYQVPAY
row,Structure (SMILES),IC50 [µM]
1,"Cc1ccccc1-c1ccc2[nH]c3c(c2c1)CN(C(=O)c1cccnc1)CC3 [Formula 20, Pyridin-3-yl(8-(o-tolyl)-1,3,4,5-tetrahydro-2H-pyrido[4,3-b]indol-2-yl)methanone]",3 to 12
2,"Cc1ccc(NC(=S)N2CCc3[nH]c4ccc(-c5ccc(C)cc5)cc4c3C2)cc1 [Formula 76, N,8-di-p-tolyl-1,3,4,5-tetrahydro-2H-pyrido[4,3-b]indole-2-carbothioamide]",3 to 12
3,"Cc1cncc(C(=O)N2CCc3[nH]c4ccc(-c5ccccc5)cc4c3C2)c1 [Formula 4, (5-methylpyridin-3-yl)(8-phenyl-1,3,4,5-tetrahydro-2H-pyrido[4,3-b]indol-2-yl)methanone]",3 to 12
4,"Cc1ccc(C(=O)N2CCc3[nH]c4ccc(-c5ccc(C)nc5)cc4c3C2)cn1 [Formula 49, (6-methylpyridin-3-yl)(8-(6-methylpyridin-3-yl)-1,3,4,5-tetrahydro-2H-pyrido[4,3-b]indol-2-yl)methanone]",12 to 25
5,"CCn1c2c(c3cc(-c4ccc(C)cc4)ccc31)CN(C(=O)c1ccccc1)CC2 [Formula 45, (5-ethyl-8-(p-tolyl)-1,3,4,5-tetrahydro-2H-pyrido[4,3-b]indol-2-yl)(phenyl)methanone]",3 to 12
6,"Cc1ccc(C(=O)N2CCc3[nH]c4ccc(-c5cccc(C#N)c5)cc4c3C2)cc1 [Formula 56, 3-(2-(4-Methylbenzoyl)-2,3,4,5-tetrahydro-1H-pyrido[4,3-b]indol-8-yl)benzonitrile]",3 to 12
7,"Cc1ccc(C(=O)N2CCc3[nH]c4ccc(-c5ccc(C6CCCCC6)cc5)cc4c3C2)cn1 [Formula 67, (8-(4-Cyclohexylphenyl)-1,3,4,5-tetrahydro-2H-pyrido[4,3-b]indol-2-yl)(6-methylpyridin-3-yl)methanone]",3 to 12
8,"COc1cccc(C(=O)N2CCc3[nH]c4ccc(-c5ccccc5)cc4c3C2)c1 [Formula 18, (3-methoxyphenyl)(8-phenyl-1,3,4,5-tetrahydro-2H-pyrido[4,3-b]indol-2-yl)methanone]",3 to 12
9,"Cc1ccc(C(=O)N2CCc3[nH]c4ccc(-c5ccccc5)cc4c3C2)cc1 [Formula 14, (8-phenyl-1,3,4,5-tetrahydro-2H-pyrido[4,3-b]indol-2-yl)(p-tolyl)methanone]",< 3
10,"Cc1ccccc1-c1ccc2[nH]c3c(c2c1)CN(C(=O)c1cccc2c1ccn2C)CC3 [Formula 24, (1-methyl-1H-indol-4-yl)(8-(o-tolyl)-1,3,4,5-tetrahydro-2H-pyrido[4,3-b]indol-2-yl)methanone]",3 to 12
11,"N#Cc1cccc(-c2ccc3[nH]c4c(c3c2)CN(C(=O)c2ccccc2)CC4)c1 [Formula 58, 3-(2-benzoyl-2,3,4,5-tetrahydro-1H-pyrido[4,3-b]indol-8-yl)benzonitrile]",3 to 12
12,"Cc1ccc(-c2ccc3[nH]c4c(c3c2)CN(C(=O)c2cccc(C)c2)CC4)cc1 [Formula 38, m-Tolyl(8-(p-Tolyl)-1,3,4,5-tetrahydro-2H-pyrido[4,3-b]indol-2-yl)methanone]",12 to 25
13,"Cc1cnc(C(=O)N2CCc3[nH]c4ccc(-c5ccccc5)cc4c3C2)cn1 [Formula 6, (5-methylpyrazin-2-yl)(8-phenyl-1,3,4,5-tetrahydro-2H-pyrido[4,3-b]indol-2-yl)methanone]",12 to 25
14,"Cc1ccccc1-c1ccc2[nH]c3c(c2c1)CN(C(=O)c1cccc(Cl)c1)CC3 [Formula 26, (3-chlorophenyl)(8-(o-tolyl)-1,3,4,5-tetrahydro-2H-pyrido[4,3-b]indol-2-yl)methanone]",12 to 25
15,"Cc1ccc2[nH]c3c(c2c1)CN(C(=O)c1ccccc1)CC3 [Formula 68, (8-methyl-1,3,4,5-tetrahydro-2H-pyrido[4,3-b]indol-2-yl)(phenyl)methanone]",3 to 12
16,"O=C(c1cnccn1)N1CCc2[nH]c3ccc(-c4ccccc4)cc3c2C1 [Formula 7, (8-phenyl-1,3,4,5-tetrahydro-2H-pyrido[4,3-b]indol-2-yl)(pyrazin-2-yl)methanone]",3 to 12

row,Structure (SMILES),IC50 [µM]
1,"O=C(c1cccnc1)N1CCc2[nH]c3ccc(Nc4ccc(Cl)cc4)cc3c2C1 [Formula 32, (8-((4-chlorophenyl)amino)-1,3,4,5-tetrahydro-2H-pyrido[4,3-b]indol-2-yl)(pyridin-3-yl)methanone]",< 3
2,"Cc1ccccc1-c1ccc2[nH]c3c(c2c1)CN(C(=O)c1ccncc1)CC3 [Formula 21, Pyridin-4-yl(8-(o-tolyl)-1,3,4,5-tetrahydro-2H-pyrido[4,3-b]indol-2-yl)methanone]",3 to 12
3,"Cc1cccc(-c2ccc3[nH]c4c(c3c2)CN(C(=O)c2ccccc2)CC4)c1 [Formula 28, Phenyl(8-(m-tolyl)-1,3,4,5-tetrahydro-2H-pyrido[4,3-b]indol-2-yl)methanone]",< 3
4,"O=C(c1nccs1)N1CCc2[nH]c3ccc(-c4ccccc4)cc3c2C1 [Formula 11, (8-phenyl-1,3,4,5-tetrahydro-2H-pyrido[4,3-b]indol-2-yl)(thiazol-2-yl)methanone]",3 to 12
5,Cc1ccc(C(=O)N2CCc3[nH]c4ccc(-c5ccc(C#N)cc5)cc4c3C2)cc1 [Formula 52],< 3
6,Cc1ccc(C(=O)N2CCc3[nH]c4ccc(-c5ccc(C#N)cc5)cc4c3C2)cn1 [Formula 54],3 to 12
7,O=C(c1ccncc1)N1CCc2[nH]c3ccc(-c4ccccc4)cc3c2C1 [Formula 3],3 to 12
8,"O=C(N1CCOCC1)N1CCc2[nH]c3ccc(-c4ccccc4)cc3c2C1 [Formula 19, Morpholino(8-phenyl-1,3,4,5-tetrahydro-2H-pyrido[4,3-b]indol-2-yl)methanone]",3 to 12
9,"Cc1ccc(-c2ccc3[nH]c4c(c3c2)CN(C(=O)c2ccccc2)CC4)cc1 [Formula 30, Phenyl(8-(p-tolyl)-1,3,4,5-tetrahydro-2H-pyrido[4,3-b]indol-2-yl)methanone]",< 3
10,"O=C(c1ccccc1)N1CCc2[nH]c3ccc(-c4ccc(C5CCCCC5)cc4)cc3c2C1 [Formula 66, (8-(4-Cyclohexylphenyl)-1,3,4,5-tetrahydro-2H-pyrido[4,3-b]indol-2-yl)(phenyl)methanone]",12 to 25
11,N#Cc1ccc(-c2ccc3[nH]c4c(c3c2)CN(C(=O)c2cccnc2)CC4)cc1 [Formula 51],3 to 12
12,N#Cc1ccc(-c2ccc3[nH]c4c(c3c2)CN(C(=O)c2cccc(C#N)c2)CC4)cc1 [Formula 55],12 to 25
13,"COc1ccc(C(=O)N2CCc3[nH]c4ccc(-c5ccc(C)cc5)cc4c3C2)cc1 [Formula 39, (4-methoxyphenyl)(8-(p-tolyl)-1,3,4,5-tetrahydro-2H-pyrido[4,3-b]indol-2-yl)methanone]",3 to 12
14,"Cc1ccc(-c2ccc3[nH]c4c(c3c2)CN(C(=S)Nc2ccc(C#N)cc2)CC4)cc1 [Formula 77, N-(4-cyanophenyl)-8-(p-tolyl)-1,3,4,5-tetrahydro-2H-pyrido[4,3-b]indole-2-carbothioamide]",12 to 25
15,"O=C(c1ccccc1)N1CCc2[nH]c3ccc(-c4ccc([N+](=O)[O-])cc4)cc3c2C1 [Formula 71, (8-(4-nitrophenyl)-1,3,4,5-tetrahydro-2H-pyrido[4,3-b]indol-2-yl)(phenyl)methanone]",< 3
16,"Cc1cccc(-c2ccc3[nH]c4c(c3c2)CN(C(=O)c2cccnc2)CC4)c1 [Formula 27, Pyridin-3-yl(8-(m-tolyl)-1,3,4,5-tetrahydro-2H-pyrido[4,3-b]indol-2-yl)methanone]",< 3

# Source: patent publication EP4682146A1, “COMPOSITION INCLUDING NOVEL PYRIDOINDOLE DERIVATIVE COMPOUND AS ACTIVE INGREDIENT FOR PREVENTION OR TREATMENT OF NEURODEGENERATIVE DISEASES” (Neurotarge Co., Ltd., priority 2023, dated 2024)
